Results taken from ChEMBL document CHEMBL1140510, “New 1,2,3,4-tetrahydropyrrolo[3,4-b]indole derivatives as selective CB2 receptor agonists” (Bioorg Med Chem Lett, 2007).

How the values were obtained:
Cannabinoid receptor 1 = Cannabinoid receptor 1 (Homo sapiens, UniProt P21554); assay: Binding affinity to human CB1 receptor
Cannabinoid receptor 2 [1] = biological target: T1, Cannabinoid receptor 2 (Homo sapiens, UniProt P34972); assay: Binding affinity to human CB2 receptor
Homo sapiens = species: Homo sapiens; assay: Selectivity for human CB2 receptor over human CB1 receptor
Cannabinoid receptor 2 [2] = biological target: T1, Cannabinoid receptor 2; assay: Agonist activity at human CB2 receptor by GTPgamma[35S] assay; assay type: functional
Cannabinoid receptor 2 [3] = biological target: T1, Cannabinoid receptor 2; assay: Agonist activity at human CB2 receptor by GTPgamma[35S] assay relative to WIN-55212-2; assay type: functional

Sequence of Cannabinoid receptor 1 (P21554 whole entry): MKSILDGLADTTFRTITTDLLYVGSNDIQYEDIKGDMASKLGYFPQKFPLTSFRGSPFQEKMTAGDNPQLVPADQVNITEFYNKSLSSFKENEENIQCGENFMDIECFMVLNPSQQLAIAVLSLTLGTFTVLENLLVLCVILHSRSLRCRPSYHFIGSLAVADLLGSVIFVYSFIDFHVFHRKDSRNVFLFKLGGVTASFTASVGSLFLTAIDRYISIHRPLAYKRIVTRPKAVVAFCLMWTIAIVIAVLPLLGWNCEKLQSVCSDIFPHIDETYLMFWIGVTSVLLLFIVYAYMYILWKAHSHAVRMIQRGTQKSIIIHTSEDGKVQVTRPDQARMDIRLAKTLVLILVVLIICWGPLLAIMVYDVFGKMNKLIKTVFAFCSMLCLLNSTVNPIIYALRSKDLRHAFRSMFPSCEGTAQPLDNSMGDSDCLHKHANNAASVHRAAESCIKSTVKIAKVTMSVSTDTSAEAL
T1 sequence (P34972 whole entry): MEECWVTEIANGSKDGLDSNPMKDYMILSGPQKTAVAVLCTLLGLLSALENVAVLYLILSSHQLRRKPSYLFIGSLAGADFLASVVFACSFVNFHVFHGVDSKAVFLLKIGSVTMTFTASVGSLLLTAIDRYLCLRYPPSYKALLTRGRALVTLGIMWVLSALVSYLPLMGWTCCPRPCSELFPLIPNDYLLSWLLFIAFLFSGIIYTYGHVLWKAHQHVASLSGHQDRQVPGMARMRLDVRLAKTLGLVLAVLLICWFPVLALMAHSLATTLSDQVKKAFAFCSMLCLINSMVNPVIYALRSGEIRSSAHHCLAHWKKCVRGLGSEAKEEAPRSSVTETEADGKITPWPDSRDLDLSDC

Row | SMILES | Ki (Cannabinoid receptor 1) | Ki (Cannabinoid receptor 2 [1]) | Ratio Ki (Homo sapiens) | EC50 (Cannabinoid receptor 2 [2]) | Emax (Cannabinoid receptor 2 [3])
1 | CCS(=O)(=O)n1c2c(c3cc(C(=O)N4CCC(OC)CC4)ccc31)CN(C1CCCC1)C2 | 2130 nM | 27.6 nM | 77.2 |  | 
2 | CCS(=O)(=O)n1c2c(c3cc(C(=O)N4CCCCC4)ccc31)CN(C1CCCC1)C2 | 818 nM | 17.5 nM | 46.7 | 1.7 nM | 107%
3 | CCS(=O)(=O)n1c2c(c3cc(C(=O)N(C)CCC(C)C)ccc31)CN(C1CCCC1)C2 | 1470 nM | 38.1 nM | 38.7 |  | 
4 | CCCS(=O)(=O)n1c2c(c3cc(C(=O)N4CCC(C)CC4)ccc31)CN(C1CCCC1)C2 | 195 nM | 22.3 nM | 8.7 | 6.7 nM | 90%
5 | CCS(=O)(=O)n1c2c(c3cc(C(=O)N4CCC(C)CC4)ccc31)CN(C1CCOC1)C2 (stereo not drawn) | 973 nM | 27.8 nM | 35 |  | 
6 | C=CCN1Cc2c(n(S(=O)(=O)CC)c3ccc(C(=O)N4CCC(C)CC4)cc23)C1 | 263 nM | 6.4 nM | 41.1 | 0.3 nM | 104%
7 | CCS(=O)(=O)n1c2c(c3cc(C(=O)N4CCC(F)CC4)ccc31)CN(C1CCCC1)C2 | 2910 nM | 44.2 nM | 65.9 |  | 
8 | CCS(=O)(=O)n1c2c(c3cc(C(=O)N(C)C(C)C)ccc31)CN(C1CCCC1)C2 | 7220 nM | 107 nM | 67.5 |  | 
9 | CCS(=O)(=O)n1c2c(c3cc(C(=O)N4CCC(C)CC4)ccc31)CN(C1CCCC1)C2 | 66.3 nM | 7 nM | 9.4 | 0.8 nM | 110%
10 | CCS(=O)(=O)n1c2c(c3cc(C(=O)N4CCC(C)CC4)ccc31)CN(C1CCOCC1)C2 | 3020 nM | 216 nM | 14 |  | 
11 | CC1CCN(C(=O)c2ccc3[nH]c4c(c3c2)CN(C2CCCC2)C4)CC1 | > 8000 nM | 4720 nM |  |  | 
12 | CC1CCN(C(=O)c2ccc3c(c2)c2c(n3S(=O)(=O)C3CC3)CN(C3CCCC3)C2)CC1 | 137 nM | 9.4 nM | 14.6 | 1.5 nM | 101%
13 | CC1CCN(C(=O)c2ccc3c(c2)c2c(n3Cc3ccccc3)CN(C3CCCC3)C2)CC1 | 658 nM | 106 nM | 6.2 |  | 
14 | CCS(=O)(=O)n1c2c(c3cc(C(=O)N4CCC(C)CC4)ccc31)CN(C1CCCCO1)C2 (stereo not drawn) | 6180 nM | 17.6 nM | 351 | 1.7 nM | 107%
15 | CCCN1Cc2c(n(S(=O)(=O)CC)c3ccc(C(=O)N4CCC(C)CC4)cc23)C1 | 604 nM | 11.1 nM | 54.4 | 0.8 nM | 104%
16 | CCS(=O)(=O)n1c2c(c3cc(C(=O)N4CCC(C)CC4)ccc31)CN(CC1CC1)C2 |  | 6.3 nM |  | 0.5 nM | 
17 | CCCCCc1cc(O)c2c(c1)CC(C)(C)[C@@H]1CCC(C)=C[C@@H]21 | 20.1 nM | 140 nM | 0.14 | 13.5 nM | 64%
18 | C=CCn1c2c(c3cc(C(=O)N4CCC(C)CC4)ccc31)CN(C1CCCC1)C2 | 695 nM | 23.3 nM | 29.8 | 5 nM | 92%
19 | CCS(=O)(=O)n1c2c(c3cc(C(=O)N4CCC(C)CC4)ccc31)CN(Cc1ccccc1)C2 | 1270 nM | 37 nM | 34.4 |  | 
20 | CCS(=O)(=O)n1c2c(c3cc(C(=O)N4CCOCC4)ccc31)CN(C1CCCC1)C2 | > 8000 nM | 308 nM | > 25 |  | 
21 | CCS(=O)(=O)n1c2c(c3cc(C(=O)N4CCC(C)CC4)ccc31)CN(CCC1CCCCC1)C2 | 2740 nM | 1980 nM | 1.4 |  | 
22 | CCCCN1Cc2c(n(S(=O)(=O)CC)c3ccc(C(=O)N4CCC(C)CC4)cc23)C1 | 341 nM | 16.8 nM | 20.3 | 2.7 nM | 105%
23 | CC(=O)n1c2c(c3cc(C(=O)N4CCC(C)CC4)ccc31)CN(C1CCCC1)C2 | 2330 nM | 88.1 nM | 26.5 |  | 
24 | CC1CCN(C(=O)c2ccc3c(c2)c2c(n3S(=O)(=O)C(C)C)CN(C3CCCC3)C2)CC1 | 150 nM | 4.2 nM | 35.7 | 0.5 nM | 105%
25 | CC1CCN(C(=O)c2ccc3c(c2)c2c(n3C)CN(C3CCCC3)C2)CC1 | 1810 nM | 84.7 nM | 21.4 |  | 
26 | CCS(=O)(=O)n1c2c(c3cc(C(=O)N4CCC(C)CC4)ccc31)CN(C(C)C)C2 | 418 nM | 8.9 nM | 47 | 0.9 nM | 101%
27 | CCCCN(C)C(=O)c1ccc2c(c1)c1c(n2S(=O)(=O)CC)CN(C2CCCC2)C1 | 779 nM | 22.3 nM | 34.9 | 4 nM | 111%
28 | CCS(=O)(=O)n1c2c(c3cc(C(=O)N4CCC(C)CC4)ccc31)CN(CC1CCCCC1)C2 | 339 nM | 935 nM | 0.4 |  | 
29 | CC1CCN(C(=O)c2ccc3c(c2)c2c(n3S(C)(=O)=O)CN(C3CCCC3)C2)CC1 | 279 nM | 7.9 nM | 35.3 | 0.6 nM | 105%
30 | CC1CCN(C(=O)c2ccc3c(c2)c2c(n3S(=O)(=O)c3ccccc3)CN(C3CCCC3)C2)CC1 | 259 nM | 17.9 nM | 14.5 | 15.6 nM | -62%
